We go through 5 compounds from US20080248134A1, “Oral compositions, use and combinations of N-[2-(dimethylamino)ethyl]-2,6 dimethyl-1-oxo-1,2-dihydrobenzo[b]-1,6-naphthyridine-4-carboxamide and closely related analogues thereof” (Auckland Uniservices Limited, priority 2005, published 2008).

Series [1] relates to HCT116p53+. Put plainly: In vitro cell proliferation assay, continuous drug exposure. The following applies: Homo sapiens, continuous drug exposure 3-5 days. Format: cell-based. From the text:
(§1) The results with the JLA and JLD lines, which have reduced topoisomerase II content as compared to the parental Jurkat line, indicate that the IC50 value of the compound is increased with decreased topoisomerase content. This is also the case for etoposide, amsacrine, DACA and doxorubicin.

The test system of series [2] is HCT116p53−. The series is described as above. It counts as cell-based. The following applies: Homo sapiens, continuous drug exposure 3-5 days.
Excerpt: as §1

Series [3] deals with JLA. The description is as above. It counts as cell-based. The conditions noted are these: Homo sapiens; JLA (reduced topoisomerase II), continuous drug exposure 3-5 days.
Excerpt: as §1

For series [4], the system named is JLD. Described as above. The following applies: Homo sapiens; JLD (reduced topoisomerase II), continuous drug exposure 3-5 days. It counts as cell-based.
Excerpt: as §1

The subject of series [5] is Jurkat. The description is as above. Format: cell-based. The conditions noted are these: Homo sapiens, continuous drug exposure 3-5 days.
Excerpt: as §1

The test system of series [6] is AuxB1. Put plainly: In vitro susceptibility to multidrug resistance, continuous exposure IC50. Format: cell-based, Chinese Hamster. The following applies: Cricetulus griseus, AuxB1 (no multidrug resistance). The protocol:
(§2) Multidrug resistance mediated by p-glycoprotein and related transport proteins is an important means by which cancer cells evade cytotoxic drugs. […] IC50 values of several drugs were measured in continuous exposure assays in these two cell lines. The resistance factor was calculated as the ratio of these values. High values indicate high susceptibility to resistance.

The subject of series [7] is CHrC5. The series is described as above. The following applies: for IC50: Cricetulus griseus, CHrC5 (multidrug resistant), continuous exposure; for Resistance factor: ratio of IC50 values in CHrC5 and AuxB1. It counts as cell-based, Chinese Hamster. The protocol:
as §2

The conditions of series [8]: data taken from the literature; cited from earlier work.
Series [9] relates to p53, p21 and Fas in HCT116 (TP53 wild type). Put plainly: Induction of the p53 pathway, western blotting. It counts as cell-based, human. An excerpt: The p53 protein is thought to play a major role in the induction of apoptosis in tumour cells (Levine A J. p53, the cellular gatekeeper for growth and division. Cell. 1997. 88(3):323-331). The p53 protein is a transcriptional activator, which acts in response to DNA damage and other stress pathways, and increases expression of proteins such as Fas and p21^WAF1. […] Products were detected by western blotting.

The test system of series [10] is survivin in HCT116 (TP53 wild type). In words: Inhibition of survivin production, western blotting. Format: cell-based, human. The conditions noted are these: various concentrations, 24 hours. As to the method: Survivin is a protein that is expressed selectively in many types of cancer cells and which is known to be associated with resistance to apoptosis (Zaffaroni N and Daidone M G. Survivin expression and resistance to anticancer treatments: perspectives for new therapeutic interventions. Drug Resistance Updates: Reviews and Commentaries in Antimicrobial and Anticancer Chemotherapy. 2002 5(2):65-72). […] Extracts were prepared, proteins were separated by electrophoresis and survivin expression was determined by western blotting.
Background: Immunoblotting shows a protein as a band on a membrane.

Series [11] relates to Jurkat LA. Put plainly: Human tumour xenograft. Format: in vivo. The conditions noted are these: Leukaemia, comparison drug. The protocol:
(§3) The compound of Formula II was evaluated in a number of xenografts using cell lines derived from cervical, endometrial, lung and colon carcinomas, leukaemia and melanoma (Table 3). These studies indicate that the compound according to the present invention has significant activity in xenografts.
In general terms: In xenograft studies the graft and the host belong to different species.

Series [12] has as its system NZEN1. In words: Human tumour xenograft. Format: in vivo. The conditions noted are these: NZEN1, Endometrium; comparison drug. The protocol: as §3
The test system of series [13] is NZC1. Put plainly: Human tumour xenograft. Format: in vivo. The following applies: NZC1, Cervix; comparison drug. The protocol: as §3
For series [14], the system named is NZM10. Put plainly: Human tumour xenograft. Format: in vivo. The following applies: NZM10, Melanoma; comparison drug. The protocol: as §3
The subject of series [15] is NZM3. Put plainly: Human tumour xenograft. It counts as in vivo. The conditions noted are these: NZM3, Melanoma; comparison drug. As to the method: as §3
Series [16] concerns NZM4. In words: Human tumour xenograft. The following applies: NZM4, Melanoma; comparison drug. It counts as in vivo. As to the method:
as §3

Series [17] deals with NZMp2. Put plainly: Human tumour xenograft. It counts as in vivo. The conditions noted are these: NZMp2, Melanoma; comparison drug. The protocol:
as §3

For the compound `COc1cc(NS(C)(=O)=O)ccc1Nc1c2ccccc2nc2ccccc12` [Amsacrine], the IC50 (usually the concentration needed to halve the response being measured) was found to be 25 nM in series [1]; 52 nM in series [2]; 3100 nM in [3]; 2700 nM in series [4]; 37 nM in series [5]; 19 nM in series [6]. This compound returned an IC50 in series [7] of 110 nM. Further, the Resistance factor in series [7] was 5.6. Moreover, the “accumulation in tumour tissue versus liver tissue and plasma” value in [8] was “accumulate more in the liver tissue than tumour tissue”.
For `CN(C)CCNC(=O)c1cccc2cc3ccccc3nc12.Cl.Cl` [DACA, N-[2-(dimethylamino)ethyl]acridine-4-carboxamide dihydrochloride], the concentration for half-maximal inhibition (IC50) is 360 nM in series [1]; 510 nM in series [2]; 1100 nM in series [3]; 2500 nM in [4]; 580 nM in series [5]; 125 nM in [6]. Also, it took 216 nM to reach half-maximal inhibition in series [7] (IC50). Moreover, the Resistance factor in [7] came to 1.6. The “accumulation in tumour tissue versus liver tissue and plasma” value in [8] is “relatively evenly spread throughout each tissue and plasma”.
Take `COc1cccc2c1C(=O)c1c(O)c3c(c(O)c1C2=O)C[C@@](O)(C(=O)CO)C[C@@H]3O[C@H]1C[C@H](N)[C@H](O)[C@H](C)O1` [Doxorubicin]: the half-inhibitory concentration (IC50) in series [1] worked out at 10.5 nM; in [2], 21 nM; in series [3] it was 42 nM; in series [4], 270 nM; in series [5], 9.6 nM; in series [6], 53 nM. The half-inhibitory concentration (IC50) in series [7] is 6100 nM. Further, in [7], the Resistance factor is 114. The “induction of p53, p21 and Fas” value is “did not” in [9] (24 hours at higher cell density (approaching confluence)); “induced p53, p21 and Fas in dose-dependent fashions” in [9] (24 hours exposure); “did not” in series [9] (earlier times (4-10 hours)). Besides, the survivin expression entry in [10] is “only small effects”. Also, the Comparison result in [11] and in series [12] was “inactive” each time.
For the compound `COc1cc([C@@H]2c3cc4c(cc3[C@@H](O[C@@H]3O[C@@H]5CO[C@@H](C)O[C@H]5[C@H](O)[C@H]3O)[C@H]3COC(=O)[C@H]23)OCO4)cc(OC)c1O` [Etoposide], the half-maximal inhibitory concentration (IC50) came to 210 nM in [1]; 390 nM in series [2]; 2080 nM in series [3]; 14400 nM in series [4]; 160 nM in series [5]; 1190 nM in series [6]. This compound also returned an IC50 in series [7] of 8600 nM. In [7], the Resistance factor was found to be 7.2. In addition, the survivin expression entry in series [10] was “only small effects”. Moreover, the Comparison entry in [13], in series [14], in series [15], in [16] and in series [17] was “active” in each case.
For `CNC(=O)c1cccc2c(Nc3ccc(NS(C)(=O)=O)cc3OC)c3cccc(C)c3nc12` [asulacrine, 9-((2-methoxy-4-[(methylsulfonyl)-amino]phenyl)amino)-N,5-dimethyl-4-acridinecarboxamide], in series [8], the “accumulation in tumour tissue versus liver tissue and plasma” value is recorded as “accumulate more in the liver tissue than tumour tissue”.
